Measurements taken from ChEMBL document CHEMBL4602715, “Efficacy and Tolerability of Pyrazolo[1,5-a]pyrimidine RET Kinase Inhibitors for the Treatment of Lung Adenocarcinoma” (ACS Med Chem Lett, 2020).

Tests used:
[1] = AUC in BALB/c mouse at 20 mg/kg, po measured upto 24 hrs by LC-MS/MS analysis; assay type: ADME, organism-based; parameters: dose 20 mg/kg, time < 24 hr, route oral; conditions: in vivo
[2] = Ratio of AUC in BALB/c mouse brain to plasma at 20 mg/kg, po measured upto 24 hrs by LC-MS/MS analysis; assay type: ADME, organism-based; conditions: brain and plasma
[3] = Toxicity in Harlan Foxn1 nude mouse xenografted with rat RIE cells transfected with KIF5B/RET at 10 mg/kg, po qd for 14 days; assay type: organism-based; conditions: in vivo, 336 h
[4] = Cmax in BALB/c mouse at 20 mg/kg, po measured upto 24 hrs by LC-MS/MS analysis; assay type: ADME, organism-based; parameters: dose 20 mg/kg, route oral; conditions: in vivo
[5] = Toxicity in Harlan Foxn1 nude mouse xenografted with rat RIE cells transfected with KIF5B/RET assessed as reduction in body weight at 30 to 60 mg/kg, po qd for 14 days; assay type: organism-based; conditions: in vivo, 336 h
[6] = Toxicity in Harlan Foxn1 nude mouse xenografted with rat RIE cells transfected with KIF5B/RET assessed as signs of hemorrhaging at 30 to 60 mg/kg, po qd for 14 days; assay type: organism-based; conditions: in vivo, 336 h
[7] = Half life in BALB/c mouse at 20 mg/kg, po measured upto 24 hrs by LC-MS/MS analysis; assay type: ADME, organism-based; conditions: in vivo
[8] = Ratio of Cmax in BALB/c mouse brain to plasma at 20 mg/kg, po measured upto 24 hrs by LC-MS/MS analysis; assay type: ADME, organism-based; conditions: brain and plasma
[9] = Toxicity in NSG mouse xenografted with human LC2/ad cells assessed as necropsy in kidneys at 10 mg/kg, po qd for 21 days measured following drug dosing termination on day 24; assay type: organism-based; conditions: in vivo, 504 h
[10] = Toxicity in NSG mouse xenografted with human LC2/ad cells assessed as body weight loss at 10 mg/kg, po qd for 21 days measured following drug dosing termination on day 24; assay type: organism-based; conditions: in vivo, 504 h
[11] = Drug uptake in plasma of Harlan Foxn1 nude mouse xenografted with rat RIE cells transfected with KIF5B/RET at 1 to 10 mg/kg, po qd for 10 days by LC-MS/MS analysis; assay type: ADME, organism-based; conditions: in vivo, 240 h
[12] = Toxicity in Harlan Foxn1 nude mouse xenografted with rat RIE cells transfected with KIF5B/RET at 1 to 10 mg/kg, po qd for 10 days; assay type: organism-based; conditions: in vivo, 240 h
[13] = Oral bioavailability in BALB/c mouse at 20 mg/kg measured upto 24 hrs by LC-MS/MS analysis; assay type: ADME, organism-based; conditions: in vivo
[14] = Toxicity in Harlan Foxn1 nude mouse xenografted with rat RIE cells transfected with KIF5B/RET assessed as reddish mottled appearance of lungs at 30 to 60 mg/kg, po qd for 14 days; assay type: organism-based; conditions: in vivo, 336 h
[15] = Toxicity in Harlan Foxn1 nude mouse xenografted with rat RIE cells transfected with KIF5B/RET assessed as lung collapse at 30 to 60 mg/kg, po qd for 14 days; assay type: organism-based; conditions: in vivo, 336 h

SMILES: COc1ccc(-c2cnn3c(N)c(-c4ccccc4)c(NC4CC(C)(C)N(C)C(C)(C)C4)nc23)cc1OC.Cl
- AUC at 24 h [1]: 12 µM·h
- Kp at 24 h [2]: 0.94
- Activity [3]: Non-Toxic
- Cmax [4]: 730 nM
- Activity [5]: Toxic
- Activity [6]: Toxic
- half-life [7]: 11 h
- Kp at 24 h [8]: 0.81
- Activity [9]: Toxic
- Activity [10]: Toxic
- Drug uptake [11]: Active
- Activity [12]: Non-Toxic
- bioavailability [13]: 94%
- Activity [14]: Toxic
- Activity [15]: Toxic
